Values joined by “and” are separate entries in the source; they are usually repeats but may differ in a detail not shown here. Identical values can stand only once.
Assays:
Type in all cases: cell-based
GluN1-4a/GluN2C NMDARs [1] = biological target: T1, GluN1-4a/GluN2C NMDARs (Rattus norvegicus, UniProt P35439+Q00961); assay: TEVC electrophysiology on Xenopus laevis oocytes expressing GluN1-4a/GluN2C; conditions: Ki, 100 μM glycine, 1 or 3 μM L-glutamate
T1 construct: expressed in transfected cells; host or cells: Xenopus laevis oocytes injected with cRNA
T1 sequence (Q00961 20-1237, other chains not shown): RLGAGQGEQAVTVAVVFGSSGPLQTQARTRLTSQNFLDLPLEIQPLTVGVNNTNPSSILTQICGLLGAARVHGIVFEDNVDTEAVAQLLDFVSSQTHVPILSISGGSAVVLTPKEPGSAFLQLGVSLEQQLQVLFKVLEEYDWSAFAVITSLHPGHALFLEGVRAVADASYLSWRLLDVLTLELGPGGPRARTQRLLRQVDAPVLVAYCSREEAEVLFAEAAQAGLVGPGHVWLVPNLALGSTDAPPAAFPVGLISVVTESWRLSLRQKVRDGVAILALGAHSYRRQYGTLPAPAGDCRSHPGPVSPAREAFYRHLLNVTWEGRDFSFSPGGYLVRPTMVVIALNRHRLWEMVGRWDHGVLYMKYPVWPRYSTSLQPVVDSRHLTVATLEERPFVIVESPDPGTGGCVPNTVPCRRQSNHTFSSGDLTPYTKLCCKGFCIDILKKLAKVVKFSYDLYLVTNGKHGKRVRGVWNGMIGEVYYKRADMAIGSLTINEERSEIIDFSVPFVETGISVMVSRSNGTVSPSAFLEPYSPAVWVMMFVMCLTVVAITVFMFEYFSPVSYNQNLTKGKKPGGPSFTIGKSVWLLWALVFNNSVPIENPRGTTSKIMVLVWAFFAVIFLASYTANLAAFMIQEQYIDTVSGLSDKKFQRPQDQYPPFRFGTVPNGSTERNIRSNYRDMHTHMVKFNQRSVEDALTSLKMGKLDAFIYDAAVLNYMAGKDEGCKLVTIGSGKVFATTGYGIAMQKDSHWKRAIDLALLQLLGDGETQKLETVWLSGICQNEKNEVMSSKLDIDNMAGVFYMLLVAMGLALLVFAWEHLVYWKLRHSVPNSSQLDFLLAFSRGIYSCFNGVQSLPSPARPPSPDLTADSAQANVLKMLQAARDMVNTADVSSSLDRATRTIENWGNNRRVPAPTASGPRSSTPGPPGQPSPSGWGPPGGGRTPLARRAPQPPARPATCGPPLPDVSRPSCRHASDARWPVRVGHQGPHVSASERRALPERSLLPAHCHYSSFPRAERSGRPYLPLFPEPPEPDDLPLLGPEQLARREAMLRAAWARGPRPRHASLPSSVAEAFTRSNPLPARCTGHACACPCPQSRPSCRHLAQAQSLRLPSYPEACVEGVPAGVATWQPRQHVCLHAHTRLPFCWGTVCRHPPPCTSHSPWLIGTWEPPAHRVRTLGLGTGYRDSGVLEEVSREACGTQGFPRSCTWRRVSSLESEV
Description: (§1) The chemical definition of UBP791 used in this study is a cis-racemic mixture of (2S,3R)- and (2R,3S)-isomers.
(§2) Plasmids (pSP or pCI_NEO) harboring rat GluN1 or GluN2 full-length subunits were linearized by restriction digestion and transcribed according to the manufacturer’s instructions (mMESSAGE mMachine SP6 or T7 kit, ThermoFisher Scientific). Recombinant rat GluN1-4a and GluN2 were expressed by co-injecting cRNA at a 1:2 (w/w) ratio into defolliculated X. laevis oocytes (amounts varied from 0.05–25 ng per oocyte). Two-electrode voltage-clamp recordings were performed 1–3 days after injection using agarose-tipped microelectrodes (0.4–1.2 MΩ) filled with 3 M KCl at a holding potential of −60 mV. The bath solution contained 5 mM HEPES, 100 mM NaCl, 0.3 mM BaCl2, 10 mM Tricine, at pH 7.4 (adjusted with KOH). […] For the statistical evaluation, we implemented pairwise F-tests to test variances, and then performed the Student t test with equal or unequal variances as determined previously, and accounted for multiple testing with the Bonferroni correction.

[2] = biological target: T2, GluN1-4a/GluN2A-4m NMDAR (Ala414Arg, Lys738Met, Gly740Arg, Arg741Lys) (Rattus norvegicus, UniProt P35439+Q00959, A414R/G740R/K738M/R741K); assay: TEVC electrophysiology on oocytes expressing GluN1-4a/GluN2A-4m mutant
T2 construct: we incorporated the mutations, Ala414Arg, Lys738Met, Gly740Arg, and Arg741Lys, in the full-length GluN2A (GluN2A-4m); expressed in transfected cells; host or cells: Xenopus laevis oocytes injected with cRNA
T2 sequence (Q00959 23-1464 A414R/K738M/G740R/R741K, other chains not shown): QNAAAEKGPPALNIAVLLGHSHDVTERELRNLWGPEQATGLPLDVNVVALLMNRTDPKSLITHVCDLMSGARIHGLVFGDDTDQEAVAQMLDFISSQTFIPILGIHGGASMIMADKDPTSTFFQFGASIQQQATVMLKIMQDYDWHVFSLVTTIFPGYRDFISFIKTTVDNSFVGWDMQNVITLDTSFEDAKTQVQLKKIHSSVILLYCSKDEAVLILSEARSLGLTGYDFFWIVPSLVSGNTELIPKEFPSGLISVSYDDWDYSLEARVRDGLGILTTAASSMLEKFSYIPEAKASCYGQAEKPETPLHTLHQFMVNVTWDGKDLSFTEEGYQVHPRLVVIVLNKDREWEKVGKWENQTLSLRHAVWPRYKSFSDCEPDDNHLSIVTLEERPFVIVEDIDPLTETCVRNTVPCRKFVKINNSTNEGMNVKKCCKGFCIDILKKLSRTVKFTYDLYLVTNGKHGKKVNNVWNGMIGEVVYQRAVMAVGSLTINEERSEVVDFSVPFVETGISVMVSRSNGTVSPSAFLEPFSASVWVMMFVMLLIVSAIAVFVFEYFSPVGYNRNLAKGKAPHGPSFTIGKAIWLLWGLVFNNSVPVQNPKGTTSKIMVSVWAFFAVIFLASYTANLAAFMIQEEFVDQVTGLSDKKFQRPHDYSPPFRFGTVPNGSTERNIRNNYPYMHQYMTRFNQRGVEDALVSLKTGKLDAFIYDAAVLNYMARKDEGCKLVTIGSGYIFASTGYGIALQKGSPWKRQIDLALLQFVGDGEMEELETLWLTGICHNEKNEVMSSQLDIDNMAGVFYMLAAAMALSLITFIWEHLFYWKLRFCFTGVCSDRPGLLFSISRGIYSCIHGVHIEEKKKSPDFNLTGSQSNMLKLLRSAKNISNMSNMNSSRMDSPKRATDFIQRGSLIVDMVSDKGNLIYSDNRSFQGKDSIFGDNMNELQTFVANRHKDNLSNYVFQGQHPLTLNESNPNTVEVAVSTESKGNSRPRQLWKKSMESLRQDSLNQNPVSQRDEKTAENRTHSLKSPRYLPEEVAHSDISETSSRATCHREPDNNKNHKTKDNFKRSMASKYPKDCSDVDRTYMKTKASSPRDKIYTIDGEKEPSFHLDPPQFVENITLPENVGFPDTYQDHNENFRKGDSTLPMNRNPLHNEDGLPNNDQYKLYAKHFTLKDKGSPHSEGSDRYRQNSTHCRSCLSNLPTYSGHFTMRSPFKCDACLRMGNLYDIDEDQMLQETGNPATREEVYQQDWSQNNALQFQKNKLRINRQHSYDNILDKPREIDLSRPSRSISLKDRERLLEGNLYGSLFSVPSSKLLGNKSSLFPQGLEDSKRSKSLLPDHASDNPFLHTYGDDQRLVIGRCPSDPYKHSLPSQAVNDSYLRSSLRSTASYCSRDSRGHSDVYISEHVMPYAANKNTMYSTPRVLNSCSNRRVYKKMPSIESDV
Description: (§3) Our previous structure of the GluN1–GluN2A LBD complexed to PPDA unambiguously mapped the antagonist-binding site at the cleft of the bilobe architecture of the GluN2 LBD (PDB: 4NF6). […] In this study, we focus on the comparison between the GluN2A and GluN2D subunits, since sequence and functional similarities between GluN2A and GluN2B and between GluN2C and GluN2D are high. Near the PPDA-binding pocket in the GluN2A LBD (Fig. 3a), the primary sequences across the GluN2A-D subunits are mostly identical except for four residues, GluN2A-Ala414, Lys738, Gly740, and Arg741, which are Arg, Met, Arg, and Lys residues in GluN2D, respectively (Fig. 3a; yellow residues and arrows in the sequence alignment). GluN2A-Ala414 is located in the D1-lobe, whereas GluN2A-Lys738, Gly740, and Arg741 are on Helix H in the D2-lobe proximal to the predicted binding site for the carboxyethyl group of UBP791. These residues are completely conserved among human, rat, and chicken, though GluN2A-Ala414 and -Lys738 are not conserved in X. laevis (frog) and Danio rerio (zebrafish) (Supplementary Fig. 1).
as §2

[3] = biological target: T3, GluN1-4a/GluN2A-4m NMDAR (Ala414Arg, Lys738Met, Gly740Arg, Arg741Lys) (Rattus norvegicus, UniProt Q00959, A414R/G740R/K738M/R741K); assay: as above; conditions: Ki GluN2A-4m relative to Ki GluN2D (WT)
T3 construct: we incorporated the mutations, Ala414Arg, Lys738Met, Gly740Arg, and Arg741Lys, in the full-length GluN2A (GluN2A-4m); expressed in transfected cells; host or cells: Xenopus laevis oocytes injected with cRNA
Description: as §3, §2

[4] = biological target: T4, GluN1-4a/GluN2D Met763Lys NMDARs (Rattus norvegicus, UniProt P35439+Q62645, M763K); assay: TEVC electrophysiology on oocytes expressing GluN1-4a/GluN2D Met763Lys
T4 construct: expressed in transfected cells; host or cells: Xenopus laevis oocytes injected with cRNA
T4 sequence (Q62645 28-1323 M763K, other chains not shown): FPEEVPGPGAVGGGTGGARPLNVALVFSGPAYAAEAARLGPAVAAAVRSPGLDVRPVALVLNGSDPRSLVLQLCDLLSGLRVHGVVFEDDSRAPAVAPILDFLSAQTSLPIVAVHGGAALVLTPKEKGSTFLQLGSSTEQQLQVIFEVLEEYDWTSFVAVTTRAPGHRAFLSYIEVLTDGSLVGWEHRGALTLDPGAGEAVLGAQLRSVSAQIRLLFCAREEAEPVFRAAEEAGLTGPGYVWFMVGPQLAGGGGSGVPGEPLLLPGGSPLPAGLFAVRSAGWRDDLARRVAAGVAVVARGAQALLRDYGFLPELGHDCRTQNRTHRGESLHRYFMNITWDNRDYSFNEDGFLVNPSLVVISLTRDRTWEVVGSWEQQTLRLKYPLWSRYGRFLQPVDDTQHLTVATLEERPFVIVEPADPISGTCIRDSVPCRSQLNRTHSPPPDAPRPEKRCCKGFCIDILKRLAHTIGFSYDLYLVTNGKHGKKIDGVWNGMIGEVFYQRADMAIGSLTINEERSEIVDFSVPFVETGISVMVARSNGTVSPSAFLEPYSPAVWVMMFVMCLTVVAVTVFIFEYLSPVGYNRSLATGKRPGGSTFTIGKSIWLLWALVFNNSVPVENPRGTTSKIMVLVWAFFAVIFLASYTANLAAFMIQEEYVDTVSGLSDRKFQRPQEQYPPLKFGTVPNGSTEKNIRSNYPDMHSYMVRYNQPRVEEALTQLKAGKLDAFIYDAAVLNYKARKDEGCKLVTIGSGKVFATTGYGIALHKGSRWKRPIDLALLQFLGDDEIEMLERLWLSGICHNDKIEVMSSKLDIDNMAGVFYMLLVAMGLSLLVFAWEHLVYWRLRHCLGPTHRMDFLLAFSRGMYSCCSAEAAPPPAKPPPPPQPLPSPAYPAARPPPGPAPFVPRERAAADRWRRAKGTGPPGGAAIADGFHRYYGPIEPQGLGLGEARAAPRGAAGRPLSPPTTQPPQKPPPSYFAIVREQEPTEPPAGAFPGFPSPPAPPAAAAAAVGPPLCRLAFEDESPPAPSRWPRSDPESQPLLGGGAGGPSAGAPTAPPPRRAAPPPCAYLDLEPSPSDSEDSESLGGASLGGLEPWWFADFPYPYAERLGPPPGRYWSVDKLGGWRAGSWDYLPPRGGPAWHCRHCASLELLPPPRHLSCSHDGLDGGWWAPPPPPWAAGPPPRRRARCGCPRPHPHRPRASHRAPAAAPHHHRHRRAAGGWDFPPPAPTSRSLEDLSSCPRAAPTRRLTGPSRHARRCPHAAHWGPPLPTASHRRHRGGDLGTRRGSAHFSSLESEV
Description: (§4) To test the validity of the structural observation for the critical involvement of the methionine/lysine residue combination (GluN2D-Met763/Lys766, and GluN2A-4m-Met738/Lys741) in preferential binding of UBP791 to GluN2D over GluN2A, we conducted site-directed mutagenesis and assessed inhibition potencies of the mutant channels by TEVC. Specifically, we converted the GluN2D residues to the equivalent ones in the GluN2A subunit and measured macroscopic currents of the GluN1-4a/GluN2D mutant NMDARs.
as §2

[5] = biological target: T5, GluN1-4a/GluN2D Lys766Arg NMDARs (Rattus norvegicus, UniProt P35439+Q62645, K766R); assay: TEVC electrophysiology on oocytes expressing GluN1-4a/GluN2D Lys766Arg
T5 construct: expressed in transfected cells; host or cells: Xenopus laevis oocytes injected with cRNA
T5 sequence (Q62645 28-1323 K766R, other chains not shown): as the sequence (Q62645 28-1323 M763K, other chains not shown) above, with K736M, K739R counted along it
Description: as §4, §2

[6] = biological target: T6, GluN1-4a/GluN2D Met763Lys/Lys766Arg NMDARs (Rattus norvegicus, UniProt P35439+Q62645, K766R/M763K); assay: TEVC electrophysiology on oocytes expressing GluN1-4a/GluN2D Met763Lys/Lys766Arg
T6 construct: expressed in transfected cells; host or cells: Xenopus laevis oocytes injected with cRNA
T6 sequence (Q62645 28-1323 M763K/K766R, other chains not shown): as the sequence (Q62645 28-1323 M763K, other chains not shown) above, with K739R counted along it
Description: as §4, §2

[7] = biological target: T7, GluN1-4a/GluN2D Met763Lys/Lys766Arg NMDARs (Rattus norvegicus, UniProt Q62645, K766R/M763K); assay: as above; conditions: Ki mutant relative to Ki GluN2D (WT)
T7 construct: expressed in transfected cells; host or cells: Xenopus laevis oocytes injected with cRNA
T7 sequence (Q62645 28-1323 M763K/K766R, other chains not shown): as the sequence (Q62645 28-1323 M763K, other chains not shown) above, with K739R counted along it
Description: as §4, §2

GluN1-4a/GluN2C NMDARs [8] = biological target: T8, GluN1-4a/GluN2C NMDARs (Rattus norvegicus, UniProt Q00961); assay: TEVC electrophysiology on Xenopus laevis oocytes expressing GluN1-4a/GluN2C; conditions: Ki GluN2C relative to Ki GluN2D (WT)
T8 construct: expressed in transfected cells; host or cells: Xenopus laevis oocytes injected with cRNA
T8 sequence (Q00961 20-1237, other chains not shown): as the sequence (Q00961 20-1237, other chains not shown) above
Description: as §1, §2

Row | Compound | Ki (GluN1-4a/GluN2C NMDARs [1]; Cheng–Prusoff from IC50 and L-glutamate EC50) [nM] | Ki (GluN1-4a/GluN2C NMDARs [1]; Cheng–Prusoff) | Ki [2] [nM] | fold difference of Ki vs. 2D (GluN2A-4m) [3] | IC50 [4] [nM] | Ki [4] [nM] | IC50 [5] [nM] | Ki [5] [nM] | IC50 [6] [nM] | Ki [6] [nM] | fold difference of Ki vs. 2D (WT) (2D-M763K/K766R) [7] [fold] | fold difference of Ki vs. 2D (GluN2C) (GluN1-4a/GluN2C NMDARs [8])
1 | O=C(O)CCc1ccc2c(ccc3cc(C(=O)N4CCN[C@@H](C(=O)O)[C@H]4C(=O)O)ccc32)c1 (relative stereo) [UBP791, (2S*,3R*)-1-(7-(2-carboxyethyl)phenanthrene-2-carbonyl)piperazine-2,3-dicarboxylic acid] | 80 ± 10 | 80 to 90 nM | 710 ± 140 | ~ 8 fold | 1900 ± 60 | 410 ± 70 | 1450 ± 80 | 170 ± 30 | 7240 ± 440 | 1150 ± 50 | 13 | –
2 | O=C(O)C=Cc1ccc2c(ccc3cc(C(=O)N4CCN[C@@H](C(=O)O)[C@H]4C(=O)O)ccc32)c1 (relative stereo) [UBP1700, (2S*,3R*)-1-(7-(2-carboxyvinyl)phenanthrene-2-carbonyl)piperazine-2,3-dicarboxylic acid] | – | 7 to 9 nM and 9 nM | 50 | ~ 7 fold | – | – | – | – | – | – | – | ~ 1.3 fold
